Tests used:
Type in all cases: cell-based
[1] = test system: HEK293 clonal cell line overexpressing APOL1 G1; assay: APOL1 G1 HEK293 cell rescue assay (Example B3); conditions: Homo sapiens, HEK293, HEK293 clonal line overexpressing APOL1 G1; geometric mean of at least 2 runs; † = single run; ¥ = concentration at 50% rescue estimated (no sigmoidal curve)
Procedure, shortened: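 Rescue of cell death caused by APOL1 G1 overexpression was measured in a clonal HEK293 line. Compounds were tested in duplicate on one plate, and EC50s were geometric means across at least two runs on different days. Some values are estimated 50%-rescue concentrations where curve fitting failed.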

APOL1 G2 = molecular target: T1, APOL1 G2 (Homo sapiens, UniProt O14791, DEL388-389); assay: APOL1-mediated calcium transport (calcium influx) assay, HEK T-REx/GCaMP6f/APOL1 G2 K6.3 cells, FLIPR TETRA; conditions: prevention of calcium influx; geometric mean of at least 2 assay runs; † = average of a technical replicate from a single assay run
T1 construct: expressed in transfected cells; host or cells: HEK293 T-REx clonal line stably expressing GCaMP6f (HEK T-REx/GCaMP6f/APOL1 G2 K6.3), doxycycline induced
T1 sequence (O14791 with tags, fused parts or gaps DEL388-389): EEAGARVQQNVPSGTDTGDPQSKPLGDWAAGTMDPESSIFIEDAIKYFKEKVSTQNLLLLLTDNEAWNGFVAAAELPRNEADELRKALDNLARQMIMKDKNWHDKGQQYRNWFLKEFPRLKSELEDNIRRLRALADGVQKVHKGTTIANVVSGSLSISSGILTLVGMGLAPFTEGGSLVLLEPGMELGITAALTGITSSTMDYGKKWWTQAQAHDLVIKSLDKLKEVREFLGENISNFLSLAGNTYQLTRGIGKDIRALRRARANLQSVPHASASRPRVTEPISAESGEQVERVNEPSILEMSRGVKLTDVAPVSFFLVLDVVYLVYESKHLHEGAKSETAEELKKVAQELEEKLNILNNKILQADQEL
Procedure, shortened: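 A HEK293 T-REx clone stably expressing GCaMP6f had APOL1 G2 induced with doxycycline (20 ng/mL solution added) for 6 h. Cells were then washed into Ca2+-free Tyrode's buffer (pH 7.4) and preincubated with compounds (duplicate 8-point) for 10 min at room temperature. Ca2+ injection to 5 mM final produced FLIPR GCaMP fluorescence, giving AC50 for influx inhibition (geometric mean, ≥2 runs).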

[2] = test system: HEK293 cells overexpressing APOL1 G2; assay: APOL1 G2 HEK293 cell rescue assay (reversal of cell death caused by overexpression of APOL1); conditions: Homo sapiens, HEK293, HEK293 overexpressing APOL1 G2; geometric mean of at least 2 assay runs; † = single assay run
Procedure, shortened: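 Each compound tested in duplicate wells on one plate per run, with values usually the geometric mean across at least two runs on different days, occasionally from one run only. Read-out: concentration giving half-maximal rescue of APOL1 G2 overexpression-induced death of HEK293 cells.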

Structure (SMILES) | EC50 [1] [nM] | AC50 (APOL1 G2) [nM] | EC50 [2] [nM]
[2H]C([2H])([2H])N1C(=O)C2(CCN(CCOc3cnc(C4(S(C)(=O)=O)CC4)nc3)CC2)c2cc(Cl)ccc21 [Compound 424, 5-chloro-1′-(2-{[2-(1-methanesulfonylcyclopropyl)pyrimidin-5-yl]oxy}ethyl)-1-(^2H3)methyl-1,2-dihydrospiro[indole-3,4′-piperidin]-2-one] | 112 | 895 | 50.2
O=C1Nc2ccc(Cl)cc2C12CCN(CCOc1cnc(N3CC4(C3)CS(=O)(=O)C4)nc1)CC2 [Compound 304, 6-[5-(2-{5-chloro-2-oxo-1,2-dihydrospiro[indole-3,4′-piperidin]-1′-yl}ethoxy)pyrimidin-2-yl]-2λ^6-thia-6-azaspiro[3.3]heptane-2,2-dione] | 286 | 1010 | 134
[2H]C([2H])([2H])N1C(=O)C2(CCN(CCOc3ccc4c(c3)CN(C)C4=O)CC2)c2cc(Cl)ccc21 [Compound 416, 5-chloro-1-(^2H3)methyl-1′-{2-[(2-methyl-1-oxo-2,3-dihydro-1H-isoindol-5-yl)oxy]ethyl}-1,2-dihydrospiro[indole-3,4′-piperidin]-2-one] | 382 | 449 | 169
CS(=O)(=O)N1Cc2ccc(OCCN3CCC4(CC3)C(=O)Nc3ccc(Cl)cc34)cc2C1 [Compound 54, 5-chloro-1′-{2-[(2-methanesulfonyl-2,3-dihydro-1H-isoindol-5-yl)oxy]ethyl}-1,2-dihydrospiro[indole-3,4′-piperidin]-2-one] | 386 | 804 | 90.3
O=C1Cc2cc(OCCN3CCC4(CC3)C(=O)Nc3ccc(Cl)cc34)cc(F)c2N1 [Compound 256, 5-chloro-1′-{2-[(7-fluoro-2-oxo-2,3-dihydro-1H-indol-5-yl)oxy]ethyl}-1,2-dihydrospiro[indole-3,4′-piperidin]-2-one] | 116 | 261 | 44.6
[2H]C([2H])([2H])N1C(=O)C2(CCN(CCOc3cnc(C(C)S(C)(=O)=O)nc3)CC2)c2cc(Cl)ccc21 (stereo not drawn) [Compound 425, 5-chloro-1′-(2-{[2-(1-methanesulfonylethyl)pyrimidin-5-yl]oxy}ethyl)-1-(^2H3)methyl-1,2-dihydrospiro[indole-3,4′-piperidin]-2-one] | 271 | 1100 | 90.6
CS(=O)(=O)C1(c2ccc(OCCN3CCC4(CC3)C(=O)Nc3ccc(C#N)cc34)cc2)CCOCC1 [Compound 187, 1′-{2-[4-(4-methanesulfonyloxan-4-yl)phenoxy]ethyl}-2-oxo-1,2-dihydrospiro[indole-3,4′-piperidine]-5-carbonitrile] | 1260 | 1220 | 268
CC1(O)CC(CN2C(=O)CCc3cc(OCCN4CCC5(CC4)C(=O)Nc4ccc(C(F)F)cc45)cnc32)C1 (stereo not drawn) [Compound 320, 5-(difluoromethyl)-1′-[2-({8-[(3-hydroxy-3-methylcyclobutyl)methyl]-7-oxo-5,6,7,8-tetrahydro-1,8-naphthyridin-3-yl}oxy)ethyl]-1,2-dihydrospiro[indole-3,4′-piperidin]-2-one] | 53.9 | 787 | 22.1
[2H]C([2H])([2H])N1C(=O)C2(CCN(CCOc3cnc4c(c3)CCC(=O)N4[C@H]3C[C@@](C)(O)C3)CC2)c2cc(Cl)ccc21 [Compound 419, 5-chloro-1-(^2H3)methyl-1′-[2-({7-oxo-8-[(1r,3s)-3-hydroxy-3-methylcyclobutyl]-5,6,7,8-tetrahydro-1,8-naphthyridin-3-yl}oxy)ethyl]-1,2-dihydrospiro[indole-3,4′-piperidin]-2-one] | 108 | 383 | 30.9
CC(COc1ccc2c(c1)CCC(=O)N2C)N1CCC2(CC1)C(=O)Nc1ccc(Cl)cc12 (stereo not drawn) [Compound 199, 5-chloro-1′-{1-[(1-methyl-2-oxo-1,2,3,4-tetrahydroquinolin-6-yl)oxy]propan-2-yl}-1,2-dihydrospiro[indole-3,4′-piperidin]-2-one] | 312 | 1130 | 148
CC(c1c(F)cc(OCCN2CCC3(CC2)C(=O)Nc2ccc(Cl)cc23)cc1F)S(C)(=O)=O (stereo not drawn) [Compound 141, 5-chloro-1′-{2-[3,5-difluoro-4-(1-methanesulfonylethyl)phenoxy]ethyl}-1,2-dihydrospiro[indole-3,4′-piperidin]-2-one] | 204 | 954 | 48
CC(COc1ccc(S(C)(=O)=O)cc1)N1CCC2(CC1)C(=O)N(C1CC(O)C1)c1ccc(Cl)cc12 (mixture of isomers) [Compound 205, 5-chloro-1′-[1-(4-methanesulfonylphenoxy)propan-2-yl]-1-[3-hydroxycyclobutyl]-1,2-dihydrospiro[indole-3,4′-piperidin]-2-one] | 1760 | 1220 | 472
CNC(=O)N1CCc2cc(OCCN3CCC4(CC3)C(=O)Nc3ccc(C#N)cc34)ccc2C1 [Compound 246, 6-(2-{5-cyano-2-oxo-1,2-dihydrospiro[indole-3,4′-piperidin]-1′-yl}ethoxy)-N-methyl-1,2,3,4-tetrahydroisoquinoline-2-carboxamide] | 4860 | 1340 | 562
CN1C(=O)C2(CCN(CCOc3ccc4nccnc4c3)CC2)c2ccccc21 [Compound 34, 1-methyl-1′-[2-(quinoxalin-6-yloxy)ethyl]-1,2-dihydrospiro[indole-3,4′-piperidin]-2-one] | > 1960 | 168 | 1330
C[C@]1(O)C[C@@H](n2cnc3cc(OCCN4CCC5(CC4)C(=O)Nc4ccc(C#N)cc45)cc(OC(F)F)c32)C1 [Compound 448, 1′-(2-{[7-(difluoromethoxy)-1-[(cis)-3-hydroxy-3-methylcyclobutyl]-1H-1,3-benzodiazol-5-yl]oxy}ethyl)-2-oxo-1,2-dihydrospiro[indole-3,4′-piperidine]-5-carbonitrile] | 687 | 1140 | 112
CS(=O)(=O)c1ccc(OCCN2CCC3(CC2)C(=O)Nc2c(Cl)cc(Cl)cc23)cc1 [Compound 7, 5,7-dichloro-1′-[2-(4-methanesulfonylphenoxy)ethyl]-1,2-dihydrospiro[indole-3,4′-piperidin]-2-one] | 764 | 601 | 279
CS(=O)(=O)c1ccc(OCCN2CCC3(CC2)C(=O)N(C2COC2)c2ccc(Cl)cc23)cc1 [Compound 22, 5-chloro-1′-(2-(4-(methylsulfonyl)phenoxy)ethyl)-1-(oxetan-3-yl)spiro[indoline-3,4′-piperidin]-2-one] | 580 | 306 | 232
CC1(O)CN(c2ncc(OCCN3CCC4(CC3)C(=O)Nc3ccc(C#N)cc34)cc2C(F)(F)F)C1 [Compound 431, 1′-(2-{[6-(3-hydroxy-3-methylazetidin-1-yl)-5-(trifluoromethyl)pyridin-3-yl]oxy}ethyl)-2-oxo-1,2-dihydrospiro[indole-3,4′-piperidine]-5-carbonitrile] | 37 | 4870 | 18.7
CS(=O)(=O)c1ccc(OCCN2CCC3(CC2)C(=O)N([C@H]2C[C@@H](O)C2)c2ccccc23)cc1 [Compound 19, 1′-[2-(4-methanesulfonylphenoxy)ethyl]-1-[(cis)-3-hydroxycyclobutyl]-1,2-dihydrospiro[indole-3,4′-piperidin]-2-one] | 4810 | 481 | 794
CC(C)(C(N)=O)c1ccc(OCCN2CCC3(CC2)C(=O)Nc2ccc(C#N)cc23)cc1 [Compound 257, 2-[4-(2-{5-cyano-2-oxo-1,2-dihydrospiro[indole-3,4′-piperidin]-1′-yl}ethoxy)phenyl]-2-methylpropanamide] | ~1000 | 974 | 256
CS(=O)(=O)c1ccc(OCCN2CCC3(CC2)C(=O)N(CCO)c2ccc(C#N)cc23)cc1C(F)(F)F [Compound 159, 1-(2-hydroxyethyl)-1′-{2-[4-methanesulfonyl-3-(trifluoromethyl)phenoxy]ethyl}-2-oxo-1,2-dihydrospiro[indole-3,4′-piperidine]-5-carbonitrile] | 588 | 1010 | 168
